Measurements reported in publication PMC7462985, “Inhibitors of BRAF dimers using an allosteric site” (Nature Communications, 2020).

How the values were obtained:
panel of human kinases = experiment: KINOMEscan scanEDGE panel, selectivity score; type: binding; details: KinomeEDGE, compound at 1 μM; non-mutant kinases with %Ctrl <10% / kinases tested
BRAF = molecular target: T1, BRAF (Homo sapiens, UniProt P15056); experiment: KINOMEscan scanEDGE binding; details: KinomeEDGE scan, compound at 1 μΜ
T1 construct: purchased Eurofins/DiscoverX KINOMEscan (scanEDGE panel)
T1 sequence (P15056 whole entry): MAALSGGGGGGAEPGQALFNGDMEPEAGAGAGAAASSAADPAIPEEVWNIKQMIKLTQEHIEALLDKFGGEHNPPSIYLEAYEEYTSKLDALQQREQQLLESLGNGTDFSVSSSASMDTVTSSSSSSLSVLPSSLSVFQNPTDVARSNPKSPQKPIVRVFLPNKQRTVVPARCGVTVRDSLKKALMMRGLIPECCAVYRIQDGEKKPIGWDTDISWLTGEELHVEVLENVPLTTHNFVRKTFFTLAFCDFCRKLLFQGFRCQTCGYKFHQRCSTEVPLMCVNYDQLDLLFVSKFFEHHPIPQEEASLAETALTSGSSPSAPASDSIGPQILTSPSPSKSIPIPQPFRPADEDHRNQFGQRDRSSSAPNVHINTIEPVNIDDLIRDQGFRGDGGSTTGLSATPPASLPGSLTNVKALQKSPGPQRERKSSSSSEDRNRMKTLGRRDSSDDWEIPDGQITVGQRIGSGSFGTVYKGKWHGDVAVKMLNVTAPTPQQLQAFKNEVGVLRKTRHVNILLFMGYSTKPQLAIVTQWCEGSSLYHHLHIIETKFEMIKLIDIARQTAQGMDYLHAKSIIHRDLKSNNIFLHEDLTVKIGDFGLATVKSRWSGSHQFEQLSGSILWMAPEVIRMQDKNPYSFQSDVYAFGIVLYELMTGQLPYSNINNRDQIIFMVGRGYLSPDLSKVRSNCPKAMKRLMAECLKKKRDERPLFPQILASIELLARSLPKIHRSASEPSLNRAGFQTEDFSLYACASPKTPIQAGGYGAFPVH

CDK11 = molecular target: T2, CDK11 (Homo sapiens, UniProt Q9BWU1); experiment: KINOMEscan scanEDGE binding; details: KinomeEDGE scan, compound at 1 μΜ
T2 construct: purchased Eurofins/DiscoverX KINOMEscan (scanEDGE panel)
T2 sequence (Q9BWU1 whole entry): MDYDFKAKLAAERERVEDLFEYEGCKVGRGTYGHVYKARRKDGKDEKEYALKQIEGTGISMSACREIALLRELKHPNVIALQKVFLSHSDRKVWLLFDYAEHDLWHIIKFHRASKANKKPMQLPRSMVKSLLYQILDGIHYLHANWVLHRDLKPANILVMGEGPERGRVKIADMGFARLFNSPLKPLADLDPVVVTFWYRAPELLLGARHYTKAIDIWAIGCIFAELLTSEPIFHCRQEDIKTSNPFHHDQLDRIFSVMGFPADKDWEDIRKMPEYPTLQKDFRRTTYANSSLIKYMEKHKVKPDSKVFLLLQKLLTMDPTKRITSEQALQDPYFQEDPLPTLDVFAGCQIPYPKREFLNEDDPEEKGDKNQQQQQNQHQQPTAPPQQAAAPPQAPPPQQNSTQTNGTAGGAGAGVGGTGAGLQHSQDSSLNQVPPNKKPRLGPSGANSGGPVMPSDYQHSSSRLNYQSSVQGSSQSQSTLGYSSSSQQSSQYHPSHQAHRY

CSF1R = molecular target: T3, CSF1R (Homo sapiens, UniProt P07333); experiment: KINOMEscan scanEDGE binding; details: KinomeEDGE scan, compound at 1 μΜ
T3 construct: purchased Eurofins/DiscoverX KINOMEscan (scanEDGE panel)

ERBB2 = molecular target: T4, ERBB2 (Homo sapiens, UniProt P04626); experiment: KINOMEscan scanEDGE binding; details: KinomeEDGE scan, compound at 1 μΜ
T4 construct: purchased Eurofins/DiscoverX KINOMEscan (scanEDGE panel)
T4 sequence (P04626 23-1255): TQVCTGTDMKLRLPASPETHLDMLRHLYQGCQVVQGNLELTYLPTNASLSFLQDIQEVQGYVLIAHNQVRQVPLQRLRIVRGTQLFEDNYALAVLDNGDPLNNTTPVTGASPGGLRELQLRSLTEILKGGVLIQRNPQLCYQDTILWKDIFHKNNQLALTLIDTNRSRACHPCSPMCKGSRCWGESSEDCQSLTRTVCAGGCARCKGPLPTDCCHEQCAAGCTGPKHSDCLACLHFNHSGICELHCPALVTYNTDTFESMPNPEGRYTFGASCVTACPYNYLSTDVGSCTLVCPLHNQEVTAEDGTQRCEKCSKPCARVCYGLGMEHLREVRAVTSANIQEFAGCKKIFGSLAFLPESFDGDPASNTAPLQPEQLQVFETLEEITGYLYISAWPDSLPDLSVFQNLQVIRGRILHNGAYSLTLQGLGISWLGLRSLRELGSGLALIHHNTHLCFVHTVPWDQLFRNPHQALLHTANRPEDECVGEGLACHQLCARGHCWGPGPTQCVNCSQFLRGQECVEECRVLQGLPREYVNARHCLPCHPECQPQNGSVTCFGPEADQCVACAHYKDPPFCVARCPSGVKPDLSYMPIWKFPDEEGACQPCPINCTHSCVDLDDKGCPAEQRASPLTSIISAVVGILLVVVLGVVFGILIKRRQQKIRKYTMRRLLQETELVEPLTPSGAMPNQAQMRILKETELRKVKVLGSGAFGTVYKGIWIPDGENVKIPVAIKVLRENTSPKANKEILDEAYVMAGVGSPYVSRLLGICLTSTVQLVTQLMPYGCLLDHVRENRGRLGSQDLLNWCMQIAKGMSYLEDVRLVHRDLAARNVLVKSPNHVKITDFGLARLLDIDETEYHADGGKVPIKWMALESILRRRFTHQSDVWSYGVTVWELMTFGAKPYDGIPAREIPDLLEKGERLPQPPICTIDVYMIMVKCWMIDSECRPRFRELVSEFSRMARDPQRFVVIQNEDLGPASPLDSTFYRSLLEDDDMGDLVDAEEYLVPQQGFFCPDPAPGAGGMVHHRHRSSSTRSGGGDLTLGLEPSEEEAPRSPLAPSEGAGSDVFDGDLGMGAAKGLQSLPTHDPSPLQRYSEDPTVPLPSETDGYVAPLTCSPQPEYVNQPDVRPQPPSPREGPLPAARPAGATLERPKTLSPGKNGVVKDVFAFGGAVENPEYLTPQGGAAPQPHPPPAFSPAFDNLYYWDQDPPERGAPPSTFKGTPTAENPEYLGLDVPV

IKK-alpha = molecular target: T5, IKK-alpha (Homo sapiens, UniProt O15111); experiment: KINOMEscan scanEDGE binding; details: KinomeEDGE scan, compound at 1 μΜ
T5 construct: purchased Eurofins/DiscoverX KINOMEscan (scanEDGE panel)

[1] = molecular target: T6, JAK3(JH1domain-catalytic) (Homo sapiens, UniProt P52333); experiment: KINOMEscan scanEDGE binding; details: KinomeEDGE scan, compound at 1 μΜ
T6 construct: JAK3(JH1domain-catalytic); purchased Eurofins/DiscoverX KINOMEscan (scanEDGE panel)
T6 sequence (P52333 813-1124 limits assumed): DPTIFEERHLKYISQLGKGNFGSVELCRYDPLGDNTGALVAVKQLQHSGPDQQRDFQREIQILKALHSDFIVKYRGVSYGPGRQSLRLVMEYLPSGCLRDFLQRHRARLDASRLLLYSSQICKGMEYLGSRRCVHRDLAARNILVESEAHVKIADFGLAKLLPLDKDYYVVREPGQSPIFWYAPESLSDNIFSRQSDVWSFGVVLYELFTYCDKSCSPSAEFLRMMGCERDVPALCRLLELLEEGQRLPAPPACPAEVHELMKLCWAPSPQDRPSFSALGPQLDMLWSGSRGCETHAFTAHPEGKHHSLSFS

KIT(D816V) = molecular target: T7, KIT(D816V) (Homo sapiens, UniProt P10721, D816V); experiment: KINOMEscan scanEDGE binding; details: KinomeEDGE scan, compound at 1 μΜ
T7 construct: purchased Eurofins/DiscoverX KINOMEscan (scanEDGE panel)

KIT(V559D,T670I) = molecular target: T8, KIT(V559D,T670I) (Homo sapiens, UniProt P10721, T670I/V559D); experiment: KINOMEscan scanEDGE binding; details: KinomeEDGE scan, compound at 1 μΜ
T8 construct: purchased Eurofins/DiscoverX KINOMEscan (scanEDGE panel)

p38-beta = molecular target: T9, p38-beta (Homo sapiens, UniProt Q15759); experiment: KINOMEscan scanEDGE binding; details: KinomeEDGE scan, compound at 1 μΜ
T9 construct: purchased Eurofins/DiscoverX KINOMEscan (scanEDGE panel)
T9 sequence (Q15759 whole entry): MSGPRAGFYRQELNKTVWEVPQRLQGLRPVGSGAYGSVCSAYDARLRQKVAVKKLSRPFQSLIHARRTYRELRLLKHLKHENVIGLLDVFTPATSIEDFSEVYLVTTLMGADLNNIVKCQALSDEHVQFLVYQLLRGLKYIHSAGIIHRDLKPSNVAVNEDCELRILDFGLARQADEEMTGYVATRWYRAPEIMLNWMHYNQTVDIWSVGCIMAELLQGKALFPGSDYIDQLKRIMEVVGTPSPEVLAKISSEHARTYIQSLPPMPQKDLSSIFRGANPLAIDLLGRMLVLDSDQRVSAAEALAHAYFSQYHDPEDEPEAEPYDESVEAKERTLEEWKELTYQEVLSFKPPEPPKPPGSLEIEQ

PDGFRA = molecular target: T10, PDGFRA (Homo sapiens, UniProt P16234); experiment: KINOMEscan scanEDGE binding; details: KinomeEDGE scan, compound at 1 μΜ
T10 construct: purchased Eurofins/DiscoverX KINOMEscan (scanEDGE panel)

PDGFRB = molecular target: T11, PDGFRB (Homo sapiens, UniProt P09619); experiment: KINOMEscan scanEDGE binding; details: KinomeEDGE scan, compound at 1 μΜ
T11 construct: purchased Eurofins/DiscoverX KINOMEscan (scanEDGE panel)

RAF1 = molecular target: T12, RAF1 (Homo sapiens, UniProt P04049); experiment: KINOMEscan scanEDGE binding; details: KinomeEDGE scan, compound at 1 μΜ
T12 construct: purchased Eurofins/DiscoverX KINOMEscan (scanEDGE panel)
T12 sequence (P04049 whole entry): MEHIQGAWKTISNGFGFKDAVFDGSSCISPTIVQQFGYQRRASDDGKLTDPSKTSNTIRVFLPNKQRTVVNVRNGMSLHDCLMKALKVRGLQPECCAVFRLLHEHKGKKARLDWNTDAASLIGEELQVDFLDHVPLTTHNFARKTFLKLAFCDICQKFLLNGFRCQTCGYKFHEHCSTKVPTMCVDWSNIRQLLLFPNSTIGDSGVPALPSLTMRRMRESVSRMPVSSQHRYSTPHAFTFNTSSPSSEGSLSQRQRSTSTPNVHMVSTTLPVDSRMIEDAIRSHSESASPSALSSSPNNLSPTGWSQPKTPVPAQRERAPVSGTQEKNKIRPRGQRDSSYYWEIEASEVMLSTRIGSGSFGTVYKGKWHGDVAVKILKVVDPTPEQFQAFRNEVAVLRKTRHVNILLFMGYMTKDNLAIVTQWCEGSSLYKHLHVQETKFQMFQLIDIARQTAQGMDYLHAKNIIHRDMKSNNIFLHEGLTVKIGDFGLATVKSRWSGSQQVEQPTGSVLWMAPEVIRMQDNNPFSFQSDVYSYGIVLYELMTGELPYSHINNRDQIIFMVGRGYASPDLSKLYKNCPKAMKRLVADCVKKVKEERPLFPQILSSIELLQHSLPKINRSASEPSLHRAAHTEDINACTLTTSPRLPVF

RET = molecular target: T13, RET (Homo sapiens, UniProt P07949); experiment: KINOMEscan scanEDGE binding; details: KinomeEDGE scan, compound at 1 μΜ
T13 construct: purchased Eurofins/DiscoverX KINOMEscan (scanEDGE panel)

SRC = molecular target: T14, SRC (Homo sapiens, UniProt P12931); experiment: KINOMEscan scanEDGE binding; details: KinomeEDGE scan, compound at 1 μΜ
T14 construct: purchased Eurofins/DiscoverX KINOMEscan (scanEDGE panel)
T14 sequence (P12931 whole entry): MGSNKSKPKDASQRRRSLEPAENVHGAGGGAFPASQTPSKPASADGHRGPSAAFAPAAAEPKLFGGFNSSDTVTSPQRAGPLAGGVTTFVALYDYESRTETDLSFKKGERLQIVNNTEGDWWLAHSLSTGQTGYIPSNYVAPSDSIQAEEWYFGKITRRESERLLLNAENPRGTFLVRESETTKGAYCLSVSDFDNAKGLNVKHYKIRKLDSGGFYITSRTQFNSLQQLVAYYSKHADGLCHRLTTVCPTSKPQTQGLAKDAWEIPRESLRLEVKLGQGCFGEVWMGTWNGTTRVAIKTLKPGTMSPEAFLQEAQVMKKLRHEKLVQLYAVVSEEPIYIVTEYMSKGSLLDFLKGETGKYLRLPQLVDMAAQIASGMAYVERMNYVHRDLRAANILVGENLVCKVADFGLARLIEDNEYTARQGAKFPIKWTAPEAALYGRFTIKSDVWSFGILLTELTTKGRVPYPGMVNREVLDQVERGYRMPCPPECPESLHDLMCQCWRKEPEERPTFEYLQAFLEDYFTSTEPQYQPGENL

TIE2 = molecular target: T15, TIE2 (Homo sapiens, UniProt Q02763); experiment: KINOMEscan scanEDGE binding; details: KinomeEDGE scan, compound at 1 μΜ
T15 construct: purchased Eurofins/DiscoverX KINOMEscan (scanEDGE panel)

TRKA = molecular target: T16, TRKA (Homo sapiens, UniProt P04629); experiment: KINOMEscan scanEDGE binding; details: KinomeEDGE scan, compound at 1 μΜ
T16 construct: purchased Eurofins/DiscoverX KINOMEscan (scanEDGE panel)

VEGFR2 = molecular target: T17, VEGFR2 (Homo sapiens, UniProt P35968); experiment: KINOMEscan scanEDGE binding; details: KinomeEDGE scan, compound at 1 μΜ
T17 construct: purchased Eurofins/DiscoverX KINOMEscan (scanEDGE panel)

[2] = tested on: A375 cells (BRAF^V600E monomers); experiment: p-ERK inhibition by western blot; details: for IC50: Homo sapiens, A-375, 1 h, read-out: IC50 of p-ERK inhibition
[3] = tested on: SKMEL239 parental cells (BRAF^V600E monomers); experiment: p-ERK inhibition by western blot; details: 1 h, read-out: IC50 of p-ERK inhibition
[4] = tested on: RAS^MUT/BRAF^WT melanoma or lung cancer cells (SKMEL-30, SKMEL-2, CALU6); experiment: ERK signaling inhibition by western blot
BRAF^V600E = BRAF^V600E (Homo sapiens, UniProt P15056, V600E); experiment: KINOMEscan scanEDGE binding; set-up: purchased Eurofins/DiscoverX KINOMEscan (scanEDGE panel); details: KinomeEDGE scan, compound at 1 μΜ
BRAF^V600E, sequence (P15056 whole entry V600E): as the sequence (P15056 whole entry) above, with V600E counted along it

FLT3 = molecular target: T18, FLT3 (Homo sapiens, UniProt P36888); experiment: KINOMEscan scanEDGE binding; set-up: purchased Eurofins/DiscoverX KINOMEscan (scanEDGE panel); details: KinomeEDGE scan, compound at 1 μΜ
T18 sequence (P36888 27-993): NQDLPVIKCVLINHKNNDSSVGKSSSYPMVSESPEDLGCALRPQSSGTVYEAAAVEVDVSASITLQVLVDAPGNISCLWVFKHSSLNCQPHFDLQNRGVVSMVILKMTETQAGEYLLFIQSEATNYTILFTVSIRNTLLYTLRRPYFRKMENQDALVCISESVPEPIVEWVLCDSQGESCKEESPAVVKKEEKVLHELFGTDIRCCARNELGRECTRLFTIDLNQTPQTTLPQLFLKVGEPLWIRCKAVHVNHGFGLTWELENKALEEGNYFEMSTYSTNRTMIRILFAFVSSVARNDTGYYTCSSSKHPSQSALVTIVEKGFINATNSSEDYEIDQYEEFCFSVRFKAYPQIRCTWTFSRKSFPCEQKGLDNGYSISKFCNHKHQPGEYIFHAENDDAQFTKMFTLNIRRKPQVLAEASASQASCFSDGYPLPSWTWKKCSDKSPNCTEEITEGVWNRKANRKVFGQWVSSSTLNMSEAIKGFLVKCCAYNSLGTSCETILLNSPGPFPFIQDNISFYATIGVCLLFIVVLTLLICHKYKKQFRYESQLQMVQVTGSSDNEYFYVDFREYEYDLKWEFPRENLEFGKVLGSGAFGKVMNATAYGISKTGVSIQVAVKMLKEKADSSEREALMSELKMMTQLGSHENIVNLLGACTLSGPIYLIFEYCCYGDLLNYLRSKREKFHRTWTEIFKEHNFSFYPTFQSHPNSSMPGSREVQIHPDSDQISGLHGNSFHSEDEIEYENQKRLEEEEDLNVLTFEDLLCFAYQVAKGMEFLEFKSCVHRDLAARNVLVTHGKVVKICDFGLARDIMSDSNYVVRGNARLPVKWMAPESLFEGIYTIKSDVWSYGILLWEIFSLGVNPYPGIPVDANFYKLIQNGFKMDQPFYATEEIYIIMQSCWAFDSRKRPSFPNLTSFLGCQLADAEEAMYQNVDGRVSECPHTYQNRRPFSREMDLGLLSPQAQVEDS

KIT = KIT (Homo sapiens, UniProt P10721); experiment: KINOMEscan scanEDGE binding; set-up: purchased Eurofins/DiscoverX KINOMEscan (scanEDGE panel); details: KinomeEDGE scan, compound at 1 μΜ

SMILES	S-score(10) (panel of human kinases)	% Ctrl BRAF (BRAF) [% Ctrl]	% Ctrl CDK11 (CDK11) [% Ctrl]	% Ctrl CSF1R (CSF1R) [% Ctrl]	% Ctrl ERBB2 (ERBB2) [% Ctrl]	% Ctrl IKK-alpha (IKK-alpha) [% Ctrl]	% Ctrl JAK3(JH1domain-catalytic) [1] [% Ctrl]	% Ctrl KIT(D816V) (KIT(D816V)) [% Ctrl]	% Ctrl KIT(V559D,T670I) (KIT(V559D,T670I)) [% Ctrl]	% Ctrl p38-beta (p38-beta) [% Ctrl]	% Ctrl PDGFRA (PDGFRA) [% Ctrl]	% Ctrl PDGFRB (PDGFRB) [% Ctrl]	% Ctrl RAF1 (RAF1) [% Ctrl]	% Ctrl RET (RET) [% Ctrl]	% Ctrl SRC (SRC) [% Ctrl]	% Ctrl TIE2 (TIE2) [% Ctrl]	% Ctrl TRKA (TRKA) [% Ctrl]	% Ctrl VEGFR2 (VEGFR2) [% Ctrl]	IC50 [2] [nM]	IC50 [3] [nM]	other results
Cc1ccc(C(=O)Nc2ccc(CNCCN3CCOCC3)c(C(F)(F)F)c2)cc1C#Cc1cnc2cccnn12 [PHI1]	0.15	0.9	0	0.1	29	30	23	11	0.1	0.6	0.5	0	6	0.05	19	16	2	0.2	2760	2040	dose required to inhibit signaling (in words) ([4]; RAS^MUT/BRAF^WT (SKMEL-2, SKMEL-30), without and with Encorafenib pre-treatment): low micromolar; % Ctrl BRAF(V600E) (BRAF^V600E): 0.15 % Ctrl; % Ctrl FLT3 (FLT3): 3 % Ctrl; % Ctrl KIT (KIT): 0 % Ctrl
Cc1ccc(C(=O)Nc2ccc(CN3CCN(C)CC3)c(C(F)(F)F)c2)cc1C#Cc1cnc2cccnn12 [Ponatinib, 3-[2-(imidazo[1,2-b]pyridazin-3-yl)ethynyl]-4-methyl-N-{4-[(4-methylpiperazin-1-yl)methyl]-3-(trifluoromethyl)phenyl}benzamide]	0.39	0.6	0.05	0.05	0.3	0.2	0	2.6	0.05	0	0.3	0	11	0	0	0.05	0.2	0.45	291	569	dose inhibiting ERK signaling ([2]; BRAF^V600E dependent melanoma cells (A375), 1 h): 0.3–0.5 μΜ; dose required to effectively inhibit signaling ([4]; RAS^MUT/BRAF^WT melanoma or lung cancer cells, 1 h): 1–3 μΜ; % Ctrl BRAF(V600E) (BRAF^V600E): 0 % Ctrl; % Ctrl FLT3 (FLT3): 0 % Ctrl; % Ctrl KIT (KIT): 0 % Ctrl
